Experimental data from ChEMBL document CHEMBL1137707, “First-principle, structure-based prediction of hepatic metabolic clearance values in human” (Eur J Med Chem, 2009).

Key:
[1] = system: Hepatocyte; assay: (§1) Hepatic clearance in human hepatocytes in absence of fetal calf serum; details: hepatocytes
[2] = as §1

| SMILES | logCL [1] | CLhep predicted ([2]; human hepatocytes) [mL/min/kg] | CLhep predicted ([2]; hepatocytes) [mL/min/kg] | CL [1] [mL/min/kg] |
| --- | --- | --- | --- | --- |
| CCCc1nn(C)c2c(=O)[nH]c(-c3cc(S(=O)(=O)N4CCN(C)CC4)ccc3OCC)nc12 | 0.7782 | – | – | – |
| O=C1CC2(CCCC2)CC(=O)N1CCCCN1CCN(c2ncccn2)CC1 [BUSPIRONE] | 1.2833 | 19.2 | – | – |
| Cn1c(=O)c2c(ncn2C)n(C)c1=O [CAFFEINE] | 0.1461 | 1.4 | – | – |
| COc1ccccc1OCCNCC(O)COc1cccc2[nH]c3ccccc3c12 (stereo unspecified) [CARVEDILOL] | 0.9395 | – | 8.7 | – |
| CN(C)CCCN1c2ccccc2Sc2ccc(Cl)cc21 [CHLORPROMAZINE] | 0.9345 | – | – | 8.6 |
| CN1C(=O)CN=C(c2ccccc2)c2cc(Cl)ccc21 [DIAZEPAM] | -0.3665 | – | – | – |
| O=C(O)Cc1ccccc1Nc1c(Cl)cccc1Cl [DICLOFENAC] | 0.8651 | – | 7.33 | – |
| O=C(O)c1cc(-c2ccc(F)cc2F)ccc1O [DIFLUNISAL] | -0.7447 | – | 0.18 | – |
| COc1ccc([C@@H]2Sc3ccccc3N(CCN(C)C)C(=O)[C@@H]2OC(C)=O)cc1 [DILTIAZEM] | 1.1072 | 12.8 | – | – |
| CCc1cccc2c3c([nH]c12)C(CC)(CC(=O)O)OCC3 (stereo unspecified) [ETODOLAC] | 0.1173 | 1.31 | – | – |
| CC(C(=O)O)c1cccc(Oc2ccccc2)c1 (stereo unspecified) [FENOPROFEN] | 0.2279 | – | – | – |
| Cc1ccc(C)c(OCCCC(C)(C)C(=O)O)c1 [GEMFIBROZIL] | 0.49 | – | 3.09 | – |
| CN1C2CCCC1CC(NC(=O)c1nn(C)c3ccccc13)C2 (stereo unspecified) [GRANISETRON] | 1.0414 | 11 | – | – |
| COc1ccc2c(c1)c(CC(=O)O)c(C)n2C(=O)c1ccc(Cl)cc1 [INDOMETHACIN] | 0.3502 | 2.24 | – | – |
| CCCCC1=NC2(CCCC2)C(=O)N1Cc1ccc(-c2ccccc2-c2nnn[nH]2)cc1 [IRBESARTAN] | 0.5855 | – | – | 3.85 |
| CCN(CC)CC(=O)Nc1c(C)cccc1C [LIDOCAINE] | 1.1761 | – | – | – |
| O=C1Nc2ccc(Cl)cc2C(c2ccccc2Cl)=NC1O (stereo unspecified) [LORAZEPAM] | 0.0414 | 1.1 | – | – |

| SMILES | logCL [1] | CLhep predicted ([2]; human hepatocytes) [mL/min/kg] | CLhep predicted ([2]; hepatocytes) [mL/min/kg] | CL [1] [mL/min/kg] |
| --- | --- | --- | --- | --- |
| C[C@H]1C[C@@H]2[C@H]([C@@H](O)C[C@@]3(C)[C@H]2CC[C@]3(O)C(=O)CO)[C@@]2(C)C=CC(=O)C=C12 [METHYLPREDNISOLONE] | 0.8751 | 7.5 | – | – |
| COCCc1ccc(OCC(O)CNC(C)C)cc1 (stereo unspecified) [METOPROLOL] | 1.0846 | 12.2 | – | – |
| Cc1ncc2n1-c1ccc(Cl)cc1C(c1ccccc1F)=NC2 [MIDAZOLAM] | 0.8195 | – | 6.6 | – |
| CC(C)(O)c1ccccc1CC[C@@H](SCC1(CC(=O)O)CC1)c1cccc(/C=C/c2ccc3ccc(Cl)cc3n2)c1 [MONTELUKAST] | 0.1038 | 1.27 | – | – |
| C=CCN1CC[C@]23c4c5ccc(O)c4O[C@H]2C(=O)CC[C@@]3(O)[C@H]1C5 [NALOXONE] | 1.29 | 19.5 | – | – |
| Cc1nccn1CC1CCc2c(c3ccccc3n2C)C1=O (stereo unspecified) [ONDANSETRON] | 0.7709 | 5.9 | – | – |
| CCOc1ccc(NC(C)=O)cc1 [PHENACETIN] | 1.2833 | – | – | – |
| C[C@]12C=CC(=O)C=C1CC[C@@H]1[C@@H]2[C@@H](O)C[C@@]2(C)[C@H]1CC[C@]2(O)C(=O)CO [PREDNISOLONE] | 0.9395 | 8.7 | – | – |
| CC(C)c1nc(CN(C)C(=O)N[C@H](C(=O)N[C@@H](Cc2ccccc2)C[C@H](O)[C@H](Cc2ccccc2)NC(=O)OCc2cncs2)C(C)C)cs1 [RITONAVIR] | 0.0792 | 1.2 | – | – |
| CN1C(C(=O)Nc2ccccn2)=C(O)c2sccc2S1(=O)=O [TENOXICAM] | -1.1367 | – | 0.073 | – |
| Cn1c(=O)c2[nH]cnc2n(C)c1=O.O [THEOPHYLLINE] | -0.1871 | 0.65 | – | – |
| CC(C)(C)NC[C@H](O)COc1nsnc1N1CCOCC1 [TIMOLOL] | 0.9624 | – | 9.17 | – |
| CCCCNC(=O)NS(=O)(=O)c1ccc(C)cc1 [TOLBUTAMIDE] | -0.5229 | – | 0.3 | – |
| Cc1c(C)c2c(c(C)c1O)CCC(C)(COc1ccc(CC3SC(=O)NC3=O)cc1)O2 (stereo unspecified) [TROGLITAZONE] | 0.9542 | 9 | – | – |
| CC(=O)CC(c1ccccc1)c1c(O)c2ccccc2oc1=O (stereo unspecified) [WARFARIN] | -0.7959 | 0.16 | – | – |
| Cc1cn([C@H]2C[C@H](N=[N+]=[N-])[C@@H](CO)O2)c(=O)[nH]c1=O [ZIDOVUDINE] | 1.0934 | 12.4 | – | – |
